# Experimental data published in patent publication US20060265769A1, “Gab2 (p97) gene and methods of use thereof” (Beth Israel Deaconess Medical Center, Inc., priority 2000, published 2006).
# Experiments:
# MCF10A cells [1] = experiment: Proliferation of MCF10A cells in three-dimensional culture (Ki67 staining); assay type: cell-based, human; settings: Gab2-overexpressing MCF10A, days 6 and 15 of culture; UO 15 μM on days 13 and 14 (FIG. 15F)
# MCF10A cells [2] = settings: treated on days 1 and 2, acini at 9 days (FIG. 15G)
# BaF3 cells = experiment: IL-3-induced c-fos promoter luciferase reporter assay; assay type: cell-based; settings: IL-3 stimulation
# Description: Therefore, the role of Gab2 in IL-3-induced c-fos promoter activity was assessed. For c-fos reporter assays, 1.5 μg of c-fos promoter (nt −710 to +42)-luciferase reporter were used (Hu et al., Science 268, 100-102 (1995)). STAT-driven transctivation was measured using 1.5 μg of a GAS-luciferase reporter (Jaster et al., Mol. Cell. Biol. 3364-3372 (1997)). For Elk assays, Gal4-Elk-1 (2 μg) and Gal4-luciferase (1 μg) were used (Bennett et al., Mol. Cell. Biol. 16, 1189-1202 (1996)). Cells were electroporated at 300V/800 μF, transferred to fresh RPMI/10% WEHI supernatant/10% FCS and, after three hours, were starved in RPMI/10% FCS. Twelve hours post-transfection, transfected cells (approximately 10^6/condition) were incubated in RPMI/10% FCS alone or with murine IL-3 (1 ng/ml) for two hours. Luciferase assays were performed with a kit (Promega, Madison, Wis.). Promoter activities were normalized to Renilla luciferase levels.
SMILES,effects of Gab2 overexpression on the proliferation of MCF10A (MCF10A cells [1]),cooperation of Gab2 with Neu (MCF10A cells [2]),IL-3-induced c-fos luciferase activity (BaF3 cells)
N#CC(=C(/N)Sc1ccccc1N)/C(C#N)=C(/N)Sc1ccccc1N [UO126],abolished,blocked,
COc1cccc(-c2cc(=O)c3ccccc3o2)c1N [PD98059],,,ablated
